Experimental data reported in PMC9785144, “Metal Coordination and Biological Screening of a Schiff Base Derived from 8-Hydroxyquinoline and Benzothiazole” (Pharmaceutics, 2022).
Where two headings read alike, the source gives them in different places. Values belong to the molecule of their own block, whether it stands above or below them.

Assays:
[1] = UV-vis spectrophotometric titration for proton dissociation constants; type: physicochemical; conditions: for pKa: 60% (v/v) DMSO/H2O solvent mixture, 60% (v/v) DMSO/H2O, I = 0.10 M (KCl), 25 °C
Experimental: The pH-potentiometric titrations for the calibration of the electrode system were performed in 30% (v/v) and 60% (v/v) DMSO/H2O solvent mixtures using 0.10 M KCl background electrolyte at 25.0 ± 0.1 °C as described in our previous works.
A Thermo Evolution 220 spectrophotometer was used to record the UV-visible (UV-vis) spectra in the 260 to 750 nm window. The path length was varied between 2 and 50 mm. As a result of the limited solubility of the compounds in water, the spectrophotometric titrations were performed to determine the proton dissociation constants (pKa) of the ligand and its complex at 5 μM concentration using 5 cm path length. Due to the light sensitivity of the studied compounds, the samples were covered and were kept in the dark during the titrations. The starting sample volume was 50 mL. These titrations were performed in the pH range 2.0–12.5 (30% (v/v) DMSO/H2O) and 2.0–14.0 (60% (v/v) DMSO/H2O). Samples were deoxygenated by bubbling purified argon through them for approximately 10 min prior to the measurements and argon was also passed over the solutions during the spectrophotometric titrations. Calculation of the proton dissociation constants was performed with the computer program PSEQUAD [28].
Titrations were performed first in 30% (v/v) DMSO/H2O mixture due to the limited water solubility of the ligand. The sample was protected from light and, for a given portion of the sample, the UV-vis spectrum was recorded only once. […] Following this experiment, the titration was repeated in 60% (v/v) DMSO/H2O mixture (Figure 7), and no precipitation was found in the whole pH range (1.73−13.67) under this condition. However, only three deprotonation steps were observed, most probably because one of the deprotonation steps was already completed at the starting pH.
To elucidate the pKa assignment, 2-hydrazinobenzothiazole (considered as a fragment of the title ligand) was titrated under similar conditions to monitor the spectral changes during the deprotonation of the benzothiazole moiety.

[2] = tested on: HCT-116, A375, CT-26, B16F10 and HaCaT cell lines; assay: Preliminary MTT antiproliferative screening on cell line panel; conditions: 20 and 40 μM, 48 h
Experimental: The MTT [32] and Guava ViaCount assays [33, 34] were used to assess cell viability in the absence (negative control) or presence of increasing concentrations of [Ni(HL)(acetate)], [Ru(HL)Cl(DMSO)] and 5-FU (positive control). Briefly, cells were plated at a concentration of 5 × 10^4 cells/mL in 96-well plates (200 μL/well) and cultured for 24 h in the culture conditions described above. Afterwards, supernatant was removed, and cells were incubated with [Ni(HL)(acetate)] and [Ru(HL)Cl(DMSO)] at concentrations ranging from 0.5 to 40 μM or from 0.5 to 100 μM for the 5-FU (positive control). Negative controls were cells maintained in complete culture medium. After 48 h, culture medium was discarded, cells were washed twice with PBS and 50 μL of MTT at 0.5 mg/mL in incomplete medium was added to all wells. After a 2 to 3 h incubation period at 37 °C and 5% CO2 environment, 100 μL DMSO was added to each well to solubilise the formazan crystals, and absorbance was measured at 570 nm using a microplate reader Model 680 (Bio-Rad, CA, USA). Between three to four independent experiments were carried out, with six replicates per condition. GraphPad Prism®8 (GraphPad Software, San Diego, CA, USA) was used to analyse cell proliferation and values were plotted and fit to a standard log dose-response curve. The IC50 values were calculated using Equation (2) [35]:log IC50 = log X1 + {[(Y1 − (Y0)/2)]/(Y1 − Y2)} × (log X2 − log X1)(2) where, Y0/2 is the half-cell density of the negative control; Y1 is the cell density above Y0/2; X1 is the concentration corresponding to Y1; Y2 is the cell density below Y0/2; X2 is the concentration corresponding to Y2. The IC50 was determined by linear interpolation between X1 and X2.
Thus, to evaluate the antiproliferative properties of the newly synthetised metal complexes, a preliminary screening was performed using human (HCT-116 and A375) and murine (CT-26 and B16F10) colon cancer and melanoma cell lines, respectively. […]

[3] = Shake-flask n-octanol/buffer distribution coefficient (D7.4); type: physicochemical; conditions: n-octanol/buffered aqueous solution, 25 °C, read-out: logD7.4
Experimental: The distribution coefficient values (D7.4) of the compounds were determined by the traditional shake-flask method in n-octanol/buffered aqueous solution at pH 7.40 (10 mM HEPES buffer, in the absence or in the presence of 0.10 M KCl) at 25.0 ± 0.2 °C. The samples and stock solutions were protected from light until the spectrophotometric concentration determination. The ligand and complex were dissolved at 150 and 100 μM concentrations in n-octanol, respectively. n-Octanol was presaturated with the HEPES solution with the given KCl concentration. The aqueous solution and n-octanol ratio was 9:1 (instead of the usual 1:1 ratio due to the high lipophilicity of the compounds). […] After separation, UV-vis spectra of the compounds in the n-octanol phase were recorded and compared to the spectra of the n-octanol stock solution. D7.4 values were calculated as in the following Equation (1): (1) D7.4=Aoct,1/Aoct,0−Aoct,1×Vwater phase/Voctanol phase where Aoct,0 and Aoct,1 are the absorbance values of the n-octanol phase before and after separation, respectively, Vwater phase and Voctanol phase are the volumes of the two phases.
The distribution coefficients (D7.4) for H2L and the Ru-complex (as model complex) were determined using HEPES buffer (pH = 7.4) for the aqueous phase. Distribution was measured in the absence and presence of 100 mM KCl. […]

CT-26 colon cancer cells = assay: MTT antiproliferative assay, CT-26; type: cell-based, murine; conditions: CT-26, MTT, 48 h incubation
Experimental: (§1) Murine colon cancer CT-26 (ATCC® CRL-263™) cells were cultured in RPMI-1640, supplemented with 10% foetal bovine serum (FBS) and 100 IU/mL of penicillin and 100 μg/mL streptomycin (Gibco, Thermo Fisher Scientific, Waltham, MA, USA), hereafter designated as complete culture medium. Human colon cancer HCT-116 (ATCC® CCL-247™), human melanoma A375 (ATCC® CCL-1619™), murine melanoma B16F10 (ATCC® CCL-6475™) cells and human epidermal keratinocytes (HaCaT) were maintained in Dulbecco’s modified Eagle’s medium (DMEM) with high-glucose (4500 mg/L) (Sigma-Aldrich, St. Louis, MO, USA), supplemented with 10% FBS and 100 IU/mL of penicillin and 100 μg/mL streptomycin (Gibco, Thermo Fisher Scientific, Waltham, MA, USA), also designated as complete culture medium. The cell lines were maintained at 37 °C in a 5% CO2 environment and cells were trypsinised every 2–3 days when 80% confluence was reached.
(§2) Negative controls were cells maintained in complete culture medium.

[4] = tested on: HCT-116 colon cancer cells; assay: MTT antiproliferative assay, HCT-116; type: cell-based, human; conditions: HCT-116, MTT, 48 h incubation
Experimental: as §1, §2

[5] = Light sensitivity in DMSO (UV-vis); type: physicochemical
Experimental: For the light sensitivity studies, DMSO solutions were prepared. The starting sample was separated equally for more portions, one was irradiated with diffuse light, while other portions were stored in the dark and measured only once.
The light sensitivity of H2L and its Ru-complex (as model metal compound) were tested by UV-vis spectrophotometry to further understand their behaviour. Samples were dissolved in DMSO and stored in the dark, while one portion was irradiated continuously by diffuse light. […] A relatively fast change is observed for the ligand in the first 1.5 h, and after that the spectrum has only minor changes (Figure 4A). […] Figure S16 depicts the spectral changes visible in Figure 4B. […] In the ligand, this may be due to a photoisomerisation process of the imine bond (Z/E isomers), which is quite common in hydrazones), but not in the Ru-complex, unless what is being observed in the complex solution is due to unbound ligand molecules.

[6] = molecular target: bovine serum albumin (BSA) (Bos taurus, UniProt P02769); assay: Albumin binding by fluorescence quenching and circular dichroism; conditions: BSA ca. 20–25 μM, bands centred at ca. 360 nm, compound 5 to 70 μM
Chain of bovine serum albumin (BSA) (P02769 25-607): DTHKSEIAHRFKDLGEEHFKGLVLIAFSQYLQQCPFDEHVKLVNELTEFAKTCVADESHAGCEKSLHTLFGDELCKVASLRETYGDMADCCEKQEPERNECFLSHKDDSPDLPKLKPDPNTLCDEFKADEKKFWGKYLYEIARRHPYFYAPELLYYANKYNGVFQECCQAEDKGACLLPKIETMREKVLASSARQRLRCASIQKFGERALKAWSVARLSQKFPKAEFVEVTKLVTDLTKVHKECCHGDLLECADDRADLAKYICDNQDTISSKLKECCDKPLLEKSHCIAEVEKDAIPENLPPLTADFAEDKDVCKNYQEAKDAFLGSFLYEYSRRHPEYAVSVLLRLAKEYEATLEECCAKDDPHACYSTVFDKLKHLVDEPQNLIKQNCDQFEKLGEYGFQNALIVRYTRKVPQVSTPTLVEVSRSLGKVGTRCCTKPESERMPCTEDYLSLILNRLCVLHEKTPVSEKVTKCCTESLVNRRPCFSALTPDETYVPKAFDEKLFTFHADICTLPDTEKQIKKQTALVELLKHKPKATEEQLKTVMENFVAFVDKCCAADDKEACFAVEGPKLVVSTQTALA
Experimental: The concentration of BSA in the experiments was ca. 1.5 μM (in aqueous PBS). The fluorescence emission spectra were recorded between 310 and 575 nm, with λex = 295 nm. Successive additions of the complexes were done directly to the cuvette (optical path 1 cm) and the fluorescence emission spectra were recorded for each one under the same conditions. Blank assays for each sample, consisting in solutions with the same concentration of complex and no BSA, were recorded and subtracted to the corresponding emission spectra containing the fluorophore. The UV-vis spectra of the sample solutions were used to correct the emission spectra, minimizing inner filter and reabsorption phenomena interference.
The concentration of BSA in the experiments was ca. 20–25 μM (in aqueous PBS). The circular dichroism (CD) spectra are an average of three scan accumulations, recorded between 300 and 500 nm, with bandwidth of 1 nm and response of 2 s, using a scanning speed of 100 nm/min. Successive additions of the complexes stock solutions in DMSO were done directly to the cuvette (1 cm) and the CD spectra were recorded under the same conditions after 10 min equilibration. Induced CD spectra were obtained as the CD spectrum of compound-BSA mixture minus the CD spectrum of BSA alone and are expressed as ellipticity in millidegrees.

CT-26 cells = assay: Cell cycle analysis by PI flow cytometry, CT-26; type: cell-based, murine; conditions: CT-26, 24 h, sub-toxic concentrations
Experimental: (§3) To understand the potential effects of [Ni(HL)(acetate)] and [Ru(HL)Cl(DMSO)] on cell cycle progression, CT-26 and HCT-116 cells were used. Briefly, cells were plated at a density of 5 × 10^4 cells/mL in 6-well plates (2 mL) and allowed to grow for 24 h at 37 °C with 5% CO2. CT-26 cells were then incubated with [Ni(HL)(acetate)] or [Ru(HL)Cl(DMSO)] at concentrations of 5 and 10 μM or 10 and 20 μM, respectively. For HCT-116 cell line, the tested concentrations were 5 and 7.5 μM, and 7.5 and 12.5 μM for [Ni(HL)(acetate)] and [Ru(HL)Cl(DMSO)], respectively. The positive control group, 5-FU, was tested at 0.5 and 2 μM and 20 and 40 μM for CT-26 and HCT-116, respectively. Negative control group was constituted by cells in the presence of complete culture medium. After a 24 h incubation period, cells were collected by centrifugation at 850× g for 5 min at 4 °C, suspended in 500 µL of ice-cold PBS, and fixed with 500 µL ice-cold 80% ethanol (−20 °C), added drop-by-drop, under gentle mixing. Prior to the analysis, samples were kept at 4 °C for at least 16 h. […] The ModFit LT™ 5.0 software was used to analyse the data and the percentages of cells in each cell cycle phase was determined (Verity Software House, Topsham, ME, USA).

HCT-116 cells [7] = assay: Cell cycle analysis by PI flow cytometry, HCT-116; type: cell-based, human; conditions: HCT-116, 24 h, sub-toxic concentrations
Experimental: as §3

HCT-116 cells [8] = assay: Wound-healing migration assay, HCT-116; type: cell-based, human; conditions: HCT-116, 12.5 μM, at 22 h (control 50%)
Experimental: To assess cellular migration in the presence or absence of tested compounds, HCT-116 and CT-26 cells were plated at 1.5 × 10^5 and 3 × 10^5 cells/mL in a 12-well plate (1 mL/well) and were allowed to adhere and grow until reaching around 80–90% confluence. A sterile 10 μL pipette tip was used to wound the cell monolayer, followed by a washing step with PBS to remove debris. Then, cells were incubated with the tested compounds suspended in RPMI-1640 (CT-26) or DMEM media (HCT-116) supplemented with 2% FBS and 100 IU/mL of penicillin and 100 μg/mL streptomycin (Gibco, Thermo Fisher Scientific, Waltham, MA, USA), and hereafter designated as RPMI 2% and DMEM 2%, respectively. Under the above mentioned culture conditions, CT-26 cells were incubated with [Ni(HL)(acetate)] or [Ru(HL)Cl(DMSO)] at concentrations of 10 and 15 μM, respectively. […] The positive control, 5-FU, was tested at 1.5 and 40 μM for CT-26 and HCT-116, respectively. Negative control group was constituted by cells maintained in RPMI 2% (CT-26) and DMEM 2% (HCT-116). Images of the wound closure were taken beneath the stage of a Zeiss Axiovert 200 inverted microscope, using a 10× objective and a digital camera (CoolSNAP EZ, Photometrics, Huntington Beach, CA, USA) and recorded by the Metafluor Software at 0, 2, 4, 8, 18, 20 and 22 h following cell monolayer scratching (Molecular Devices, Sunnyvale, CA, USA). […]

- pKa ([1]; read-out: pKa2): 3.35 ± 0.03
- pKa ([1]; read-out: pKa3): 10.35 ± 0.03
- pKa ([1]; read-out: pKa4): 12.86 ± 0.03
SMILES: NNc1nc2ccccc2s1 [2-Hydrazinobenzothiazole, 2-hydrazinobenzothiazole, reference compound]
- antiproliferative / cytotoxic effect in preliminary screening [2]: no effect

- logD at 4 h ([3]; pH 7.4, n-octanol/10 mM HEPES pH 7.4, 0 mM KCl): 2.8
- logD at 4 h ([3]; pH 7.4, n-octanol/10 mM HEPES pH 7.4, 100 mM KCl): 3
- pH range of precipitation ([1]; 30% (v/v) DMSO/H2O, 5 μM): 3.8−11.0
- pKa ([1]; read-out: pKa2): 1.99 ± 0.03
- pKa ([1]; read-out: pKa3): 9.09 ± 0.04
- pKa ([1]; read-out: pKa4): 12.99 ± 0.04
- IC50 (CT-26 colon cancer cells; Mus musculus, CT26): 1.8 ± 0.4 µM
- IC50 ([4]; Homo sapiens): 3 ± 0.8 µM
- light sensitivity ([5]; irradiated continuously by diffuse light): strong light sensitivity
- spectral changes in the dark ([5]; stored in the dark, 4 days of monitoring): only a small change
- induced CD bands with BSA [6]: high intensity induced CD bands
SMILES: Oc1cccc2ccc(/C=N/Nc3nc4ccccc4s3)nc12 [H2L, (E)-2-((2-(benzo[d]thiazol-2-yl)Hydrazono)Methyl)Quinolin-8-ol]
- antiproliferative / cytotoxic effect in preliminary screening [2]: high cytotoxicity

SMILES: O=Cc1ccc2cccc(O)c2n1 [HQ2CHO, 2-carbaldehyde-8-hydroxyquinoline]
- antiproliferative / cytotoxic effect in preliminary screening [2]: cytotoxicity against the human melanoma and colon cancer cell lines

- IC50 (CT-26 colon cancer cells): 11 ± 2.3 µM
- IC50 [4]: 8.6 ± 2 µM
- induced CD bands with BSA [6]: high intensity induced CD bands
SMILES: CC(=O)[O][Ni][O]c1cccc2ccc(C=NNc3nc4ccccc4s3)nc12 [[Ni(HL)(acetate)]]
- cell cycle arrest (CT-26 cells): arrested cell cycle at S phase
- cell cycle arrest (HCT-116 cells [7]): no such effect
- maximum wound closure (HCT-116 cells [8]): 32%
